In patent publication US7605172B2, “Thiazolo-naphthyl acids” (Wyeth, priority 2004, dated 2009):

How the values were obtained:
human PAI-1 = human PAI-1 (Homo sapiens, UniProt P05121); assay: Assay for determining IC50 of inhibition of PAI-1 (Antibody Assay); format: binding; settings: active PAI-1 bound to tPA-coated plate
Protocol: This assay is based upon the non-SDS dissociable interaction between tPA and active PAI-1. Assay plates are initially coated with human tPA (10 μg/ml). Test compounds of the present invention are dissolved in DMSO at 10 mM, then diluted with physiologic buffer (pH 7.5) to a final concentration of 1-50 μM. Test compounds are incubated with human PAI-1 (50 ng/ml) for 15 minutes at room temperature. The tPA-coated plate is washed with a solution of 0.05% Tween 20 and 0.1% BSA, then the plate is blocked with a solution of 3% BSA. An aliquot of the thiazolo-naphthyl acid/PAI-1 solution is then added to the tPA-coated plate, incubated at room temperature for 1 hour, and washed. Active PAI-1 bound to the plate is assessed by adding an aliquot of a 1:1000 dilution of the 33B8 monoclonal antibody against human PAI-1, and incubating the plate at room temperature for 1 hour (Molecular Innovations, Royal Oak, Mich.). The plate is again washed, and a solution of goat anti-mouse IgG-alkaline phosphatase conjugate is added at a 1:50,000 dilution in goat serum. The plate is incubated 30 minutes at room temperature, washed, and a solution of alkaline phosphatase substrate is added. The plate is incubated 45 minutes at room temperature, and color development is determined at OD405 nm. The quantitation of active PAI-1 bound to tPA at varying concentrations of the test compound is used to determine the IC50. Results are analyzed using a logarithmic best-fit equation. The assay sensitivity is 5 ng/ml of human PAI-1 as determined from a standard curve ranging from 0-100 ng/ml.

[1] = biological target: T1, recombinant human plasminogen activator inhibitor-1 (PAI-1) (Homo sapiens, UniProt P05121); assay: Primary screen for the PAI-1 inhibition; format: biochemical; settings: for inhibition at 10 µM: 10 μM test compound; for inhibition at 25 µM: 25 μM test compound
T1 construct: purchased Molecular Innovations, Royal Oak, Mich
Protocol: Test compounds are dissolved in DMSO at a final concentration of 10 mM, then diluted 100× in physiologic buffer. The inhibitory assay is initiated by the addition of the test compound (1-100 μM final concentration, maximun DMSO concentration of 0.2%) in a pH 6.6 buffer containing 140 nM recombinant human plasminogen activator inhibitor-1 (PAI-1; Molecular Innovations, Royal Oak, Mich.). Following a 1 hour incubation at room temperature, 70 nM of recombinant human tissue plasminogen activator (tPA) is added, and the combination of the test compound, PAI-1 and tPA is incubated for an additional 30 minutes. Following the second incubation, Spectrozyme-tPA (American Diagnostica, Greenwich, Conn.), a chromogenic substrate for tPA, is added and absorbance read at 405 nm at 0 and 60 minutes. Relative PAI-1 inhibition is equal to the residual tPA activity in the presence of the test compound and PAI-1. Control treatments include the complete inhibition of tPA by PAI-1 at the molar ratio employed (2:1), and the absence of any effect of the test compound on tPA alone.

Sequence of human PAI-1 (P05121 24-402): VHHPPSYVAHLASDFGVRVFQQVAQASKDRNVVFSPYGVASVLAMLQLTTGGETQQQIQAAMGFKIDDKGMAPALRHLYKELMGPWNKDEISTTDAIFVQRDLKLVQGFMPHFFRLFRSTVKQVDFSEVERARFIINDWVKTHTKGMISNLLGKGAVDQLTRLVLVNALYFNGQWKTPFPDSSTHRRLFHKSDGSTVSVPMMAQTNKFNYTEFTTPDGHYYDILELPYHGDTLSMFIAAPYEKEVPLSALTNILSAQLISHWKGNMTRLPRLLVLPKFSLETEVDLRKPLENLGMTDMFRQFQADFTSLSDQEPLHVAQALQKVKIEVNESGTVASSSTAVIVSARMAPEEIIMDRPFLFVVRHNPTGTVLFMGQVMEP
T1 sequence (P05121 24-402): as above

Row | SMILES | IC50 (human PAI-1) | inhibition at 10 µM [1] | inhibition at 25 µM [1] | melting point
1 | O=C(O)COc1ccc2cc(-c3csc(-c4ccccc4)n3)ccc2c1Br [Example 4, {[1-bromo-6-(2-phenyl-1,3-thiazol-4-yl)-2-naphthyl]oxy}acetic acid] | 20.3 µM | 40% | 68% | 222 to 230 °C
2 | O=C(O)C(Cc1ccccc1)Oc1ccc2cc(-c3nc(-c4ccccc4)sc3Br)ccc2c1Br (stereo not drawn) [Example 7, 2-{[1-bromo-6-(5-bromo-2-phenyl-1,3-thiazol-4-yl)-2-naphthyl]oxy}-3-phenylpropanoic acid] |  | 20% | 71% | 221 to 223 °C
3 | c1ccc(-c2nc(-c3ccc4cc(OCc5nnn[nH]5)ccc4c3)cs2)cc1 [Example 2, 5-({[6-(2-phenyl-1,3-thiazol-4-yl)-2-naphthyl]oxy}methyl)-1H-tetraazole] | 34.3 µM | 6% | 59% | 226 to 228 °C
4 | Brc1c(OCc2nnn[nH]2)ccc2cc(-c3csc(-c4ccccc4)n3)ccc12 [Example 5, 5-({[1-bromo-6-(2-phenyl-1,3-thiazol-4-yl)-2-naphthyl]oxy}methyl)-1H-tetraazole] |  | 42% | 64% | 227 to 231 °C
5 | O=C(O)COc1ccc2cc(-c3csc(Cc4c(Cl)cccc4Cl)n3)ccc2c1 [Example 6, ({6-[2-(2,6-dichlorobenzyl)-1,3-thiazol-4-yl]-2-naphthyl}oxy)acetic acid] |  | 21% | 43% | 205 to 207 °C
6 | O=C(O)c1ccc(COc2ccc3cc(-c4csc(-c5ccccc5)n4)ccc3c2Br)cc1 [Example 8, 4-({[1-bromo-6-(2-phenyl-1,3-thiazol-4-yl)-2-naphthyl]oxy}methyl)benzoic acid] |  | 38% | 49% | 
7 | O=C(O)c1ccc(COc2ccc3cc(-c4csc(-c5ccccc5)n4)ccc3c2Br)cc1 (hydrate or solvate) [Example 8, 4-({[1-bromo-6-(2-phenyl-1,3-thiazol-4-yl)-2-naphthyl]oxy}methyl)benzoic acid] |  |  |  | 268 to 270 °C
8 | O=C(O)C(Cc1ccccc1)Oc1ccc2cc(-c3csc(-c4ccccc4)n3)ccc2c1Br (stereo not drawn) [Example 3, 2-{[1-bromo-6-(2-phenyl-1,3-thiazol-4-yl)-2-naphthyl]oxy}-3-phenylpropanoic acid] |  | 1% | 49% | 220 to 224 °C
9 | O=C(O)C(Cc1ccccc1)Oc1ccc2cc(-c3csc(-c4ccccc4)n3)ccc2c1 (stereo not drawn) [Example 1, 3-phenyl-2-{[6-(2-phenyl-1,3-thiazol-4-yl)-2-naphthyl]oxy}propanoic acid] | 26.2 µM | 4% | 62% | 154 to 160 °C
